The values below come from PubChem BioAssay (NCI).

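Interpolation was linear, between the two tested concentrations surrounding the appropriate level; five concentrations were tested over 48 hours in 96-well plates. GI50 = concentration required for 50% inhibition of growth. TGI is the concentration that stops growth completely.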 A value given as a limit tells only on which side of the number the result lay.

Assay in all cases: growth of human tumour cells (NCI), 48 h
Assay [1] concerns MOLT-4 leukemia.
Assay [2] has as its system TK-10 renal.
Assay [3] concerns LOX IMVI melanoma.
The subject of assay [4] is SNB-75 CNS.
Assay [5] has as its system HL-60(TB) leukemia.
Assay [6] relates to COLO 205 colon.
Assay [7] relates to SF-295 CNS.
Assay [8] relates to A498 renal.
Assay [9] concerns NCI-H522 lung.

With `Cc1nc([N+](=O)[O-])cn1CC(=N)N`, the TGI in assay [1], in [2], in assay [3], in assay [4], in assay [5] and in assay [6] was greater than 100 µM each time. Besides, the TGI in assay [7] and in assay [8] was greater than 100 µM throughout.
Consider `CC(C)N(C(=O)C12C3C4C1(I)C1C2C3(I)C41C(=O)N(C(C)C)C(C)C)C(C)C` (configuration not stated), for which the TGI in assay [1] was greater than 100 µM; in [2], greater than 100 µM; in assay [3], greater than 60.5 µM; in assay [4], greater than 100 µM; in [5] it was greater than 61.3 µM; in assay [6], greater than 100 µM. Further, the TGI in assay [7], in assay [9] and in [8] was greater than 100 µM each time.
As for `COC(=O)/C=C/c1c(CC=C(C)C)ncn1C`, the TGI was greater than 100 µM in assay [1]; greater than 100 µM in [2]; greater than 100 µM in [3]; 56 µM in assay [4]; 31.6 µM in [5]; greater than 100 µM in [6]. Further, the TGI in assay [7], in [9] and in assay [8] was greater than 100 µM throughout.
For `CCCN1CN(C(C(=O)N[C@@H]2C(=O)N3C2SC(C)(C)C3C(=O)O)c2ccc(O)cc2)CSC1=S` (some centres not stated), the TGI in [1], in assay [2], in assay [3], in [4], in assay [5] and in assay [6] was greater than 100 µM throughout. Also, the figures for the TGI in [7], in assay [9] and in [8] were greater than 100 µM, 83.6 µM and greater than 100 µM, respectively.
On to `COC(=O)[C@H]1C=C[C@@H](C)n2c(=O)c3cc4ccccc4cc3c(=O)n21`, for which the TGI in assay [1], in [2], in [3], in assay [4], in [5] and in assay [6] was greater than 100 µM each time. In addition, the TGI in [7], in assay [9] and in [8] was greater than 100 µM each time.
Consider `Cc1ccc(NC(=O)CSc2nnc(-c3ccc(N=Cc4ccc(Cl)cc4)cc3)o2)cc1`, for which the TGI in assay [1], in assay [2], in assay [3], in [4], in assay [5] and in assay [6] was greater than 100 µM each time. Further, the TGI in assay [7] and in assay [9] was greater than 100 µM in each case.
Consider `N#CC(C(=O)C(=O)Nc1ccc(Cl)cc1)c1ccccc1` (configuration not stated), for which the TGI in assay [1], in assay [2], in assay [3], in assay [4], in [5] and in assay [6] was greater than 100 µM in each case. Besides, the TGI in assay [7] and in [8] was greater than 100 µM in each case.
Consider `COc1cc(C=O)c(-c2cc(OC)c(OC)cc2C=O)cc1OC`, for which the TGI in assay [1] is greater than 100 µM; in [2], greater than 100 µM; in assay [3], 66 µM; in [4] it was greater than 100 µM; in assay [5], greater than 100 µM; in assay [6], greater than 100 µM. Also, the TGI in [7], in assay [9] and in assay [8] was greater than 100 µM in each case.
As to `CCCO/S(=N\S(=O)(=O)c1ccccc1)c1ccccc1[N+](=O)[O-]` (configuration not stated), the TGI in [1], in assay [3], in [4], in assay [6], in assay [7] and in assay [9] was greater than 100 µM throughout.
For `CC(C)N(CCn1c2c3ccccc3ccc2c2oc(=O)c3ccccc3c21)C(C)C`, the TGI in assay [1] was greater than 100 µM; in [2] it was greater than 100 µM; in assay [3], greater than 100 µM; in assay [4], 75.9 µM; in assay [5], greater than 100 µM; in assay [6] it was greater than 100 µM. The TGI was greater than 95.1 µM in assay [7], greater than 100 µM in [9] and greater than 100 µM in [8].
Regarding `C/C(CC(=O)Nc1cccc(Cl)c1C)=N\NC(=O)c1ccncc1`, the TGI in assay [1], in [2], in [3], in [4], in assay [5] and in assay [6] was greater than 100 µM each time. For the same molecule, the TGI was greater than 100 µM in [7] and 55 µM in assay [9].
As for `Cc1cc(C)nc(NS(=O)(=O)c2ccc(NC(=O)c3cccc4c(Nc5ccc(S(N)(=O)=O)cc5)c5ccccc5nc34)cc2)n1`, the TGI in [1] is 29.3 µM; in assay [2], greater than 100 µM; in assay [3] it was 99.8 µM; in [4], greater than 100 µM; in assay [5], 29.6 µM; in assay [6], greater than 62.5 µM. Besides, the TGI in [7] was greater than 100 µM; in assay [9] it was 38.7 µM; in assay [8] it was greater than 100 µM.
On to `CC(=O)O[C@H]1CCC2[C@@H]3CCC4Nc5[nH]ncc5C[C@]4(C)C3CC[C@@]21C` (some centres not stated), for which the TGI in assay [1] was 58.6 µM; in assay [2], greater than 100 µM; in assay [3], greater than 100 µM; in assay [4] it was greater than 100 µM; in assay [5] it was 42.5 µM; in assay [6] it was greater than 100 µM. Moreover, the figures for the TGI in assay [7], in assay [9] and in assay [8] were greater than 100 µM, 83.2 µM and greater than 100 µM, respectively.
As to `COc1c[c]([Hg][O]C(C)=O)c(OC)c(NC(=O)CC(C)=O)[c]1[Hg][O]C(C)=O`, the GI50 in assay [1] was 2.32 µM; in assay [2] it was 4.46 µM; in assay [4] it was 14 µM; in assay [5], 2.41 µM; in [6], 2.37 µM; in assay [7] it was greater than 41.7 µM. In assay [8], the GI50 is 8.03 µM. Further, the TGI in assay [1] is 6.85 µM; in assay [2], 14 µM; in [4] it was 28 µM; in [5], 5.35 µM; in [7], greater than 55.8 µM; in assay [9] it was 0.154 µM. For the same molecule, the TGI in [8] was 22.6 µM.
Take `O=Cc1ccc2c(c1-c1c(C=O)ccc3c1OCO3)OCO2`: the TGI in assay [1], in assay [2], in assay [4], in assay [5], in assay [6] and in assay [7] was greater than 100 µM throughout. In addition, the TGI in assay [9] and in assay [8] was greater than 100 µM in each case.
